# From US7939534B2, “Certain chemical entities, compositions, and methods” (Cytokinetics, Inc., priority 2006, dated 2011)
# Biological target: T1, chicken gizzard smooth muscle myosin subfragment-1 chemically crosslinked to either cardiac or skeletal actin (Gallus gallus, UniProt P10587)
# T1 construct: chicken gizzard smooth muscle myosin subfragment-1; from tissue; host or cells: chicken gizzard
# Experiment: Dose dependent smooth muscle myosin ATPase modulation (pyruvate kinase/horseradish peroxidase/pyruvate oxidase-coupled ATPase assay)
# Format: biochemical
# Conditions: read-out: IC50 Arithmetic Mean
# Description: In Vitro Model of Dose Dependent Smooth Muscle Myosin Atpase Modulation
# Screening assays were performed using a pyruvate kinase and lactate dehydrogenase-coupled ATPase assay containing the following reagents: Potassium PIPES (50 mM ), MgCl2 (3 mM ), KCl (100 mM ), ATP (0.15 mM ), DTT (1 mM ), BSA (0.1 mg/ml), NADH (0.5 mM ), PEP (1.5 mM ), pyruvate kinase (4 U/ml), lactate dehydrogenase (8 U/ml), and antifoam (50 ppm) (concentrations expressed are final assay concentrations). The pH was adjusted to 6.80 at 22° C. by addition of potassium hydroxide. Lead optimization assays were performed with a more sensitive pyruvate kinase/horseradish peroxidase/pyruvate oxidase-coupled ATPase assay containing the following reagents: Potassium PIPES (12 mM ), MgCl2 (2 mM ), KCl (100 mM ), ATP (0.15 mM ), BSA (0.05 mg/ml), potassium phosphate (2 mM ), amplex red (0.1 mM ), PEP (0.1 mM ), pyruvate kinase (4 U/ml), horseradish peroxidase (0.5 U/ml), pyruvate oxidase (0.5 U/ml), and antifoam (50 ppm) (concentrations expressed are final assay concentrations). The pH was adjusted to 7.00 at 22° C. by addition of potassium hydroxide.
# The protein components specific to this assay are chicken gizzard smooth muscle myosin subfragment-1 that has been chemically crosslinked to either cardiac or skeletal actin using an excess of 1-Ethyl-3-[3-dimethylaminopropyl]carbodiimide hydrochloride and N-hydroxysuccinimide. The exact concentration of the crosslinked smooth muscle myosin in the assay is determined empirically, by titration to achieve a desired rate of ATP hydrolysis. The concentration varies between protein preparations due to variations in the fraction of active molecules in each preparation.
# Compound dose response assays are performed by first preparing a dilution series of test compound, each with an assay mixture containing potassium PIPES, MgCl2, KCl, ATP, BSA, potassium phosphate, amplex red, PEP, crosslinked smooth muscle actomyosin (subfragment-1), antifoam, and water. The assay is started by adding an equal volume of solution containing potassium Pipes, MgCl2, KCl, BSA, potassium phosphate, pyruvate kinase, horseradish peroxidase, pyruvate oxidase, antifoam, and water. ATP hydrolysis is monitored by measuring the fluorescence of amplex red (excitation at 480 nm, emission at 615 nm). The resulting dose response curve is fit by the 4 parameter equation y=Bottom+((Top−Bottom)/(1+((IC50/X)^Hill))). The IC50 is defined as the concentration at which ATPase activity is midway between the top and bottom of the dose response curve.
row,IC50 [µM],Compound
1,0.117,"O=C(NCc1cccnc1)c1ccc(C2=CCCCC2)nc1NCCc1cccc(F)c1 [Compound 67, (6-cyclohex-1-enyl-2-{[2-(3-fluorophenyl)ethyl]amino}(3-pyridyl))-N-(3-pyridylmethyl)carboxamide]"
2,0.119,"NCCCN1C(=O)CC[C@@H]1CNC(=O)c1cc(F)c(N2CCCC2)nc1NCCc1cccc(F)c1 [Compound 52, N-{[(2R)-1-(3-aminopropyl)-5-oxopyrrolidin-2-yl]methyl}(5-fluoro-2-{[2-(3-fluorophenyl)ethyl]amino}-6-pyrrolidinyl(3-pyridyl))carboxamide]"
3,6.86,"CC(C)(C)OC(=O)N1CCC[C@@H]1CNC(=O)c1cc(F)c(N2CCCC2)nc1NCCc1cccc(F)c1 [Compound 80, tert-butyl (2R)-2-{[(5-fluoro-2-{[2-(3-fluorophenyl)ethyl]amino}-6-pyrrolidinyl(3-pyridyl))carbonylamino]methyl}pyrrolidinecarboxylate]"
4,1.46,"NC(=O)CNC(=O)c1ccc(N2CCCC2)nc1NCCc1cccc(F)c1 [Compound 5, N-(carbamoylmethyl)(2-{[2-(3-fluorophenyl)ethyl]amino}-6-pyrrolidinyl(3-pyridyl))carboxamide]"
5,5.6,"O=C(O)CC1CCN(c2ccc(C(=O)NCc3cccnc3)c(NCCc3cccc(F)c3)n2)C1 (stereo not drawn) [Compound 95, 2-[1-(6-{[2-(3-fluorophenyl)ethyl]amino}-5-[N-(3-pyridylmethyl)carbamoyl]-2-pyridyl)pyrrolidin-3-yl]acetic acid]"
6,2.97,"O=C(NCc1cccnc1)c1ccc(N2CCC(c3ccncc3)C2)nc1NCCc1cccc(F)c1 (stereo not drawn) [Compound 96, (2-{[2-(3-fluorophenyl)ethyl]amino}-6-(3-(4-pyridyl)pyrrolidinyl)(3-pyridyl))-N-(3-pyridylmethyl)carboxamide]"
7,9.5,"CNC(=O)CNC(=O)c1ccc(N2CCC(O)CC2)nc1NCCc1cccc(F)c1 [Compound 90, 2-[(2-{[2-(3-fluorophenyl)ethyl]amino}-6-(4-hydroxypiperidyl)(3-pyridyl))carbonylamino]-N-methylacetamide]"
8,6.97,"O=C1CN(c2ccc(C(=O)NCc3cccnc3)c(NCCc3cccc(F)c3)n2)CCN1 [Compound 21, (2-{[2-(3-fluorophenyl)ethyl]amino}-6-(3-oxopiperazinyl)(3-pyridyl))-N-(3-pyridylmethyl)carboxamide]"
9,0.382,"O=C(NCc1cccnc1)c1ccc(N2CCC(CO)CC2)nc1NCCc1cccc(F)c1 [Compound 19, (2-{[2-(3-fluorophenyl)ethyl]amino}-6-[4-(hydroxymethyl)piperidyl](3-pyridyl))-N-(3-pyridylmethyl)carboxamide]"
10,70.8,"O=C(NCc1cccnc1)c1ccc(N2CCNCC2=O)nc1NCCc1cccc(F)c1 [Compound 25, (2-{[2-(3-fluorophenyl)ethyl]amino}-6-(2-oxopiperazinyl)(3-pyridyl))-N-(3-pyridylmethyl)carboxamide]"
11,0.435,"N#CN1CCN=C1c1ccc(C(=O)NCc2cccnc2)c(NCCc2cccc(F)c2)n1 [Compound 51, (6-(1-cyano(2-imidazolin-2-yl))-2-{[2-(3-fluorophenyl)ethyl]amino}(3-pyridyl))-N-(3-pyridylmethyl)carboxamide]"
12,1.8,"O=C(NC[C@H]1CCCN1)c1cc(F)c(N2CCCC2)nc1NCCc1cccc(F)c1 [Compound 79, N-[((2R)pyrrolidin-2-yl)methyl](5-fluoro-2-{[2-(3-fluorophenyl)ethyl]amino}-6-pyrrolidinyl(3-pyridyl))carboxamide]"
13,53.4,"CN(C)C(=O)c1ccc(N2CCCCC2=O)nc1NCCc1cccc(F)c1 [Compound 26, (2-{[2-(3-fluorophenyl)ethyl]amino}-6-(2-oxopiperidyl)(3-pyridyl))-N,N-dimethylcarboxamide]"
14,0.0146,"NCc1ncccc1CNC(=O)c1ccc(C2=CCCC2)nc1NCCc1cccc(F)c1 [Compound 37, N-{[2-(aminomethyl)(3-pyridyl)]methyl}(6-cyclopent-1-enyl-2-{[2-(3-fluorophenyl)ethyl]amino}(3-pyridyl))carboxamide]"
15,59.5,"CN[C@H]1CCN(c2ccc(C(=O)NCc3cccnc3)c(NCCc3cccc(F)c3)n2)C1 [Compound 120, (6-[(3S)-3-(methylamino)pyrrolidinyl]-2-{[2-(3-fluorophenyl)ethyl]amino}(3-pyridyl))-N-(3-pyridylmethyl)carboxamide]"
16,4.36,"CN1CC=C(c2ccc(C(=O)NCc3cccnc3)c(NCCc3cccc(F)c3)n2)CC1 [Compound 71, (2-{[2-(3-fluorophenyl)ethyl]amino}-6-(1-methyl(4-1,2,5,6-tetrahydropyridyl))(3-pyridyl))-N-(3-pyridylmethyl)carboxamide]"
17,2.49,"O=C(NCc1cccnc1)c1ccc(N2CCC(C(F)(F)F)C2)nc1NCCc1cccc(F)c1 (stereo not drawn) [Compound 99, (2-{[2-(3-fluorophenyl)ethyl]amino}-6-[3-(trifluoromethyl)pyrrolidinyl](3-pyridyl))-N-(3-pyridylmethyl)carboxamide]"
18,64.8,"CNC[C@@H]1CCN(c2ccc(C(=O)NCc3cccnc3)c(NCCc3cccc(F)c3)n2)C1 [Compound 7, (6-{(3S)-3-[(methylamino)methyl]pyrrolidinyl}-2-{[2-(3-fluorophenyl)ethyl]amino}(3-pyridyl))-N-(3-pyridylmethyl)carboxamide]"
19,20.7,"CC(=O)NC1CCN(c2ccc(C(=O)NCc3cccnc3)c(NCCc3cccc(F)c3)n2)C1 (stereo not drawn) [Compound 118, N-[1-(6-{[2-(3-fluorophenyl)ethyl]amino}-5-[N-(3-pyridylmethyl)carbamoyl]-2-pyridyl)pyrrolidin-3-yl]acetamide]"
20,10.5,"O=C(NCc1cccnc1)c1ccc(C2=CCNCC2)nc1NCCc1cccc(F)c1 [Compound 57, (2-{[2-(3-fluorophenyl)ethyl]amino}-6-(4-1,2,5,6-tetrahydropyridyl)(3-pyridyl))-N-(3-pyridylmethyl)carboxamide]"
21,0.243,"Nc1ccc(CNC(=O)c2ccc(N3CCCC3)nc2NCCc2cccc(F)c2)cn1 [Compound 12, N-[(6-amino(3-pyridyl))methyl](2-{[2-(3-fluorophenyl)ethyl]amino}-6-pyrrolidinyl(3-pyridyl))carboxamide]"
22,67.3,"COC[C@@H]1CCCN1c1ccc(C(=O)NCc2cccnc2)c(NCCc2cccc(F)c2)n1 [Compound 108, (6-[(2S)-2-(methoxymethyl)pyrrolidinyl]-2-{[2-(3-fluorophenyl)ethyl]amino}(3-pyridyl))-N-(3-pyridylmethyl)carboxamide]"
23,4.5,"COC(=O)N[C@@H]1CCN(c2ccc(C(=O)NCc3cccnc3)c(NCCc3cccc(F)c3)n2)C1 [Compound 44, N-[(3R)-1-(6-{[2-(3-fluorophenyl)ethyl]amino}-5-[N-(3-pyridylmethyl)carbamoyl](2-pyridyl))pyrrolidin-3-yl]methoxycarboxamide]"
24,5.77,"COC(=O)N1C=CC(c2ccc(C(=O)NCc3cccnc3)c(NCCc3cccc(F)c3)n2)CC1 (stereo not drawn) [Compound 72, methyl 4-(6-{[2-(3-fluorophenyl)ethyl]amino}-5-[N-(3-pyridylmethyl)carbamoyl]-2-pyridyl)-1,4,5,6-tetrahydropyridinecarboxylate]"

row,Compound,IC50 [µM]
1,"CC(C)(C)OC(=O)NCC(=O)N1CCC[C@@H]1CNC(=O)c1cc(F)c(N2CCCC2)nc1NCCc1cccc(F)c1 [Compound 77, N-[((2R)-1-{2-[(tert-butoxy)carbonylamino]acetyl}pyrrolidin-2-yl)methyl](5-fluoro-2-{[2-(3-fluorophenyl)ethyl]amino}-6-pyrrolidinyl(3-pyridyl))carboxamide]",13.6
2,"CC(C)(C)OC(=O)NCc1ncccc1CNC(=O)c1cc(F)c(N2CC[C@@H](F)C2)nc1NCCc1cccc(F)c1 [Compound 65, (6-((3R)-3-fluoropyrrolidinyl)-5-fluoro-2-{[2-(3-fluorophenyl)ethyl]amino}(3-pyridyl))-N-[(2-{[(tert-butoxy)carbonylamino]methyl}(3-pyridyl))methyl]carboxamide]",8.24
3,N-[((2R)-1-{4-[(tert-butoxy)carbonylamino]butanoyl}pyrrolidin-2-yl)methyl](5-fluoro-2-{[2-(3-fluorophenyl)ethyl]amino}-6-pyrrolidinyl(3-pyridyl))carboxamide [Compound 75],8.55
